Tests used:
[1] = Crystallinity of salt forms by HT-XRPD; type: physicochemical; conditions: salt screen solid forms
Method: The precipitated solids were analyzed by high throughput X-ray powder diffractometry (HT XRPD). Liquid phases (both solutions and mother liquors) were evaporated at ambient conditions and the residual solids were analyzed by HT XRPD.
XRPD patterns were obtained using the Ardena T2 high-throughput XRPD set-up. The plates were mounted on a Bruker General Area Detector Diffraction System (GADDS) equipped with a VÅNTEC-500 gas area detector corrected for intensity and geometric variations. The calibration of the measurement accuracy (peaks position) was performed using NIST SRM1976 standard (Corundum).
No background subtraction or curve smoothing was applied to the XRPD patterns.

[2] = Physical stability under Accelerated Aging Conditions (AAC, 40° C./75% RH, 2 days), HT-XRPD; conditions: for Physically stable after AAC: Example 1; for Physically stable after AAC / physical stability upon exposure to AAC: 40° C./75% RH for 2 days; for Physical Stability: AAC 40° C./75% RH, 2 days, re-analyzed by HT-XRPD; for physical stability upon exposure to AAC: Example 2
Method: The solids were separated from the liquid phases by centrifugation, dried overnight under vacuum at 50° C. and analyzed by HT-XRPD. Solvents from the remaining mother liquors and solutions were evaporated under ambient conditions (evaporative crystallization experiments) and the residual solids were analyzed by HT-XRPD.
Slurries of the amorphous solids (GEN9 and GEN16, respectively) were prepared in 15 solvents at room temperature. The suspensions were subjected to a temperature profile, which comprised of three heating and cooling cycles. At the end of the temperature profile, the solids were isolated by centrifugation and dried at ambient conditions and under vacuum at 50° C. Upon completion of all crystallization experiments, all solids were analyzed by HT-XRPD.

Row | Compound | Crystallinity [1] | Physically stable after AAC [2] | Physical Stability [2] | physical stability upon exposure to AAC [2]
1 | Br.NC(=NC(=O)c1nc(Cl)c(N)nc1N)NCc1ccccc1 [HBR6] | Good | – | – | –
2 | N=C(NCc1ccccc1)NC(=O)c1nc(Cl)c(N)nc1N.O=P(O)(O)O [PHO1] | – | physically unstable | – | –
3 | Br.Br.NC(=NC(=O)c1nc(Cl)c(N)nc1N)NCc1ccccc1 [HBR3] | Moderate | – | Unstable | –
4 | NC(=NC(=O)c1nc(Cl)c(N)nc1N)NCc1ccccc1.O=C(O)c1cc2ccccc2c(Cc2c(O)c(C(=O)O)cc3ccccc23)c1O [PAM1] | Obtained as mixture | – | Stable | physically stable
5 | NC(=NC(=O)c1nc(Cl)c(N)nc1N)NCc1ccccc1.O=C(O)CC(O)(CC(=O)O)C(=O)O [CIT2] | Good | – | – | –
6 | NC(=NC(=O)c1nc(Cl)c(N)nc1N)NCc1ccccc1.O=C(O)C=CC(=O)O [MAE3] | Moderate | – | Stable | physically stable
7 | N=C(NCc1ccccc1)NC(=O)c1nc(Cl)c(N)nc1N.O=C(O)CC(=O)O [MAO4] | Good | – | – | –
8 | NC(=NC(=O)c1nc(Cl)c(N)nc1N)NCc1ccccc1.O=S(=O)(O)c1ccc2ccccc2c1 [NSA2] | Moderate | – | Stable | physically stable
9 | NC(=NC(=O)c1nc(Cl)c(N)nc1N)NCc1ccccc1.O=C(O)c1ccccc1O [SAL2] | Poor | – | – | –
10 | NC(=NC(=O)c1nc(Cl)c(N)nc1N)NCc1ccccc1.O=[N+]([O-])O [NIT4] | – | physically unstable | – | –
11 | NC(=NC(=O)c1nc(Cl)c(N)nc1N)NCc1ccccc1.O=C(O)c1ccccc1O [SAL3] | Moderate | – | Unstable- | –
12 | NC(=NC(=O)c1nc(Cl)c(N)nc1N)NCc1ccccc1.O=C(O)c1cc2ccccc2c(Cc2c(O)c(C(=O)O)cc3ccccc23)c1O [PAM4] | Poor | – | – | –
13 | NC(=NC(=O)c1nc(Cl)c(N)nc1N)NCc1ccccc1.O=CO [FOR2] | Moderate/Poor | – | Unstable | –
14 | N=C(NCc1ccccc1)NC(=O)c1nc(Cl)c(N)nc1N.O=S(=O)(O)c1ccccc1 [BES2] | Good | – | Unstable | –
15 | NC(=NC(=O)c1nc(Cl)c(N)nc1N)NCc1ccccc1.O=C(O)c1ccco1 [FUR1] | Good | – | Stable | physically stable
16 | CCS(=O)(=O)O.NC(=NC(=O)c1nc(Cl)c(N)nc1N)NCc1ccccc1 [ESY1] | Good | – | Stable | physically stable
17 | CS(=O)(=O)O.NC(=NC(=O)c1nc(Cl)c(N)nc1N)NCc1ccccc1 [MES3] | Moderate | – | – | –
18 | Cc1ccc(S(=O)(=O)O)cc1.N=C(NCc1ccccc1)NC(=O)c1nc(Cl)c(N)nc1N [TOS2a] | – | physically unstable | – | –
19 | NC(=NC(=O)c1nc(Cl)c(N)nc1N)NCc1ccccc1.O=S(=O)(O)CCS(=O)(=O)O [EDY3] | Good | – | Stable | physically stable
20 | NC(=NC(=O)c1nc(Cl)c(N)nc1N)NCc1ccccc1.O=CO [FOR5] | Good | – | – | –
21 | PAM3 | Poor | – | Unstable | –
22 | NC(=NC(=O)c1nc(Cl)c(N)nc1N)NCc1ccccc1.O=S(=O)(O)CCS(=O)(=O)O [EDY5] | Moderate | – | – | –
23 | NC(=NC(=O)c1nc(Cl)c(N)nc1N)NCc1ccccc1.O=C(O)C=Cc1ccccc1 [CIN1] | Moderate | – | Stable | physically stable
24 | CCCC(=O)O.NC(=NC(=O)c1nc(Cl)c(N)nc1N)NCc1ccccc1 [BUT2] | Poor | – | Unstable | –
25 | NC(=NC(=O)c1nc(Cl)c(N)nc1N)NCc1ccccc1.O=C(O)C=CC(=O)O [MAE2] | Good | – | Stable | physically stable
26 | N=C(NCc1ccccc1)NC(=O)c1nc(Cl)c(N)nc1N.O=CO [FOR1] | Good | – | – | –
27 | NC(=NC(=O)c1nc(Cl)c(N)nc1N)NCc1ccccc1.O=C(O)c1cc(O)ccc1O [GEN1] | Moderate | – | Stable | physically stable

Row | Compound | Crystallinity [1] | Physically stable after AAC [2] | Physical Stability [2] | physical stability upon exposure to AAC [2]
28 | NC(=NC(=O)c1nc(Cl)c(N)nc1N)NCc1ccccc1.O=C(O)c1cc(=O)[nH]c(=O)[nH]1 [ORO3] | Poor | – | Poor- | –
29 | Cl.Cl.N=C(NCc1ccccc1)NC(=O)c1nc(Cl)c(N)nc1N [Di-HCl1] | – | physically unstable | – | –
30 | NC(=NC(=O)c1nc(Cl)c(N)nc1N)NCc1ccccc1.O=S(=O)(O)CCS(=O)(=O)O [EDY1] | Good | – | Unstable | –
31 | Br.N=C(NCc1ccccc1)NC(=O)c1nc(Cl)c(N)nc1N [HBR7] | Good | – | – | –
32 | N=C(NCc1ccccc1)NC(=O)c1nc(Cl)c(N)nc1N.O=[N+]([O-])O [NIT1] | – | physically unstable | – | –
33 | CCC(=O)O.NC(=NC(=O)c1nc(Cl)c(N)nc1N)NCc1ccccc1 [PRO4] | Obtained as mixture | – | Unstable | –
34 | NC(=NC(=O)c1nc(Cl)c(N)nc1N)NCc1ccccc1.O=S(=O)(O)c1ccccc1 [BES1] | Good | – | Unstable | –
35 | NC(=NC(=O)c1nc(Cl)c(N)nc1N)NCc1ccccc1.NC(=NC(=O)c1nc(Cl)c(N)nc1N)NCc1ccccc1.O=S(=O)(O)CCS(=O)(=O)O [EDY4] | Good | – | Unstable | –
36 | NC(=NC(=O)c1nc(Cl)c(N)nc1N)NCc1ccccc1.O=C(O)c1ccco1 [FUR3] | Good | – | Unstable | –
37 | CCC(=O)O.NC(=NC(=O)c1nc(Cl)c(N)nc1N)NCc1ccccc1 [PRO3] | Moderate | – | Unstable | –
38 | CCS(=O)(=O)O.NC(=NC(=O)c1nc(Cl)c(N)nc1N)NCc1ccccc1 [ESY3] | Poor | – | Unstable | –
39 | NC(=NC(=O)c1nc(Cl)c(N)nc1N)NCc1ccccc1.O=C(O)CNC(=O)c1ccccc1 [HIP2] | Poor | – | – | –
40 | NC(=NC(=O)c1nc(Cl)c(N)nc1N)NCc1ccccc1.O=C(O)c1ccccc1O [SAL1] | Good | – | Stable | physically stable
41 | NC(=NC(=O)c1nc(Cl)c(N)nc1N)NCc1ccccc1.O=S(=O)(O)O [SUL2] | – | physically unstable | – | –
42 | CCC(=O)O.NC(=NC(=O)c1nc(Cl)c(N)nc1N)NCc1ccccc1 [PRO5] | Moderate | – | – | –
43 | Br.N=C(NCc1ccccc1)NC(=O)c1nc(Cl)c(N)nc1N [HBR8] | Good | – | – | –
44 | NC(=NC(=O)c1nc(Cl)c(N)nc1N)NCc1ccccc1.O=C(O)c1cc2ccccc2c(Cc2c(O)c(C(=O)O)cc3ccccc23)c1O [PAM2] | Poor | – | Stable | physically stable
45 | NC(=NC(=O)c1nc(Cl)c(N)nc1N)NCc1ccccc1.O=C(O)c1ccco1 [FUR2] | Good | – | – | –
46 | NC(=NCc1ccccc1)NC(=O)c1nc(Cl)c(N)nc1N.O=C(O)c1cc(=O)[nH]c(=O)[nH]1 [ORO2] | Good - poorly | – | Stable | physically stable
47 | CCS(=O)(=O)O.NC(=NC(=O)c1nc(Cl)c(N)nc1N)NCc1ccccc1 [ESY4] | Moderate | – | – | –
48 | Cc1ccc(S(=O)(=O)O)cc1.N=C(NCc1ccccc1)NC(=O)c1nc(Cl)c(N)nc1N [TOS3] | – | physically stable | – | –
49 | N=C(NCc1ccccc1)NC(=O)c1nc(Cl)c(N)nc1N.O=C(O)c1cc(=O)[nH]c(=O)[nH]1 [ORO1] | Good | – | Stable | physically stable
50 | CCC(=O)O.NC(=NC(=O)c1nc(Cl)c(N)nc1N)NCc1ccccc1 [PRO1] | Good | – | Unstable | –
51 | NC(=NC(=O)c1nc(Cl)c(N)nc1N)NCc1ccccc1.O=CO [FOR4] | Good | – | – | –
52 | NC(=NCc1ccccc1)NC(=O)c1nc(Cl)c(N)nc1N.O=[N+]([O-])O [NIT2] | – | physically unstable | – | –
53 | CCCCC(=O)O.NC(=NC(=O)c1nc(Cl)c(N)nc1N)NCc1ccccc1 [VAL2] | Poor | – | – | –

Source: patent publication US20250002463A1, “NEW SALT FORMS OF AMILORIDE AND ITS DERIVATIVES FOR PHARMACEUTICAL USE” (PSOMRI Holding AB, priority 2021, published 2025)
